Laboratory results reported in patent US20050176764A1, “Medicine for treating cancer” (KOWA CO., LTD, priority 2002, published 2005).
Structures can show the parent of a compound that is named as a salt.

Key:
Assay type in all cases: cell-based
[1] = tested on: Human umbilical venous endothelial cells (HUVECs); assay: Gene expression analysis (GeneChip HuGene FL array) in TNFα-stimulated HUVECs; conditions: Example 10 at 1 μM, TSA at 10 μM
Description: Human umbilical venous endothelial cells (HUVECs) were placed in 10 cm dishes (3×10^5 cells/dish). Two days thereafter, Trichostatin A (TSA, produced by Upstate) dissolved in dimethyl sulfoxide (DMSO) and the compound prepared in Example 10 dissolved in DMSO were individually added to a final concentrations of 10 μM and 1 μM, respectively. Each sample was stimulated with TNFα (final concentration: 10 ng/mL, Genzyme-Techne). Four hours later, total RNA was extracted with ISOGEN (Nippon Gene Co., Ltd.). The subsequent procedure was performed in accordance with the manufacturer's protocol (Affymetrix). From the thus obtained total RNA, mRNA was purified by a conventional method. cDNA was synthesized from the purified mRNA, and then biotin-labeled cRNA was synthesized by in vitro transcription. The cRNA was purified and subjected to heat treatment for fragmentation. The fragmented cRNA was used in gene expression analysis.
Method of gene expression analysis: The thus-prepared fragmented cRNA was injected to a HuGene human FL array (Affymetrix), and allowed to hybridize for 16 hours at 45° C. After washing, streptavidin labeled with phycoerythrin, and biotinylated anti-streptavidin antibody were added to each sample in order to cause reaction. Gene expression information was read by use of a dedicated scanner for GeneChip™ (Hewlett Packard). The thus-obtained information was analyzed with GeneChip Software (Affymetrix) for comparison in terms of level of expression.

[2] = tested on: ACHN (renal cancer); assay: Cancer cell growth inhibition, sulforhodamine B colorimetry; conditions: incubation two days
Description: (§1) Cultured human cancer cells were placed in a 96-well plate. On the following day, a solution of the compound prepared in Example 10 (in five concentrations resulting from 10-fold stepwise dilution: 10^−4, 10^−5, 10^−6, 10^−7, or 10^−8 M) was added, followed by incubation for two days. Cell count after growth was determined in each plate through colorimetry using sulforhodamine B. The concentration at which the cell count after growth was inhibited to 50% of that of the cell count of the control (in the absence of the compound prepared in Example 10) was calculated (GI50). Simultaneously, on the basis of the cell count just before addition of the compound prepared in Example 10 (time zero), the following value (concentration) was calculated. • TGI: a concentration at which cell growth is inhibited to a cell count equal to that at time zero (concentration at which no change in cell count is observed) • LC50: a concentration at which cell count is reduced to 50% of the cell count at time zero (cell-killing effect).

[3] = tested on: DMS114 (lung cancer); assay: as above; conditions: DMS114, incubation two days
Description: as §1

[4] = tested on: HCC2998 (colon cancer); assay: as above; conditions: HCC2998, incubation two days
Description: as §1

[5] = tested on: LOX-IMVI (melanoma); assay: as above; conditions: incubation two days
Description: as §1

[6] = tested on: MCF-7 (breast cancer); assay: as above; conditions: MCF-7, incubation two days
Description: as §1

[7] = tested on: MKN74 (stomach cancer); assay: as above; conditions: MKN74, incubation two days
Description: as §1

[8] = tested on: OVCAR-3 (ovarian cancer); assay: as above
Description: as §1

[9] = tested on: PC-3 (prostatic carcinoma); assay: as above; conditions: PC-3, incubation two days
Description: as §1

[10] = tested on: SF-539 (brain tumor); assay: as above; conditions: SF-539, incubation two days
Description: as §1

[11] = tested on: cultured human cancer cells; assay: Cancer cell growth inhibition, sulforhodamine B colorimetry, overall statement; conditions: result in words
Description: as §1

[12] = out of 52 genes increased twice or more by TNFα
[13] = Homo sapiens, 48 h, read-out: LC50 (the source's name)

## COc1ccc(N(Cc2ccnc(-c3cc(OC)c(OC)c(OC)c3)c2)C2CCN(Cc3ccnc(-c4cc(OC)c(OC)c(OC)c4)c3)CC2)cc1 [Example 10, 4-[N-(4-methoxyphenyl)-N-[[2-(3,4,5-trimethoxypheny)pyridin-4-yl]methyl]amino]-1-[[2-(3,4,5-trimethoxyphenyl)pyridin-4-yl]methyl]piperidine Trihydrochloride]
[1]; TNFα 10 ng/mL, 4 h
  mRNA expression level of ABC transporter B2: 69
  mRNA expression level of B94: 1010
  mRNA expression level of BCL3: 125
  mRNA expression level of Cox-2: 0
  mRNA expression level of EphrinA1: 148
  mRNA expression level of Gro1: 614
  mRNA expression level of I kappa B alpha: 1259
  mRNA expression level of IAP homolog B: 42
  mRNA expression level of ICAM-1: 2174
  mRNA expression level of IFNGR2: 186
  mRNA expression level of IL-7R: 44
  mRNA expression level of M-Ras-regulated GEF: 37
  mRNA expression level of MCP-1: 43
  mRNA expression level of Na/K-ATPase beta-1: 78
  mRNA expression level of Nef associated factor 1: 496
  mRNA expression level of OB-cadherin-2: 24
  mRNA expression level of RDC1: 27
  mRNA expression level of Spliceosomal Protein Sap 49: 40
  mRNA expression level of TRAF1: 88
  mRNA expression level of VCAM-1: 83
  mRNA expression level of beta-galactoside alpha-2; 6-sialyltransferase: 14
  mRNA expression level of caspase-like apoptosis regulatory protein 2 (clarp): 76
  mRNA expression level of cytoplasmic antiproteinase 2 (CAP2): 78
  mRNA expression level of ets-2: 90
  mRNA expression level of exodus-1: 310
  mRNA expression level of fractalkine: 7
  mRNA expression level of junB: 210
  mRNA expression level of lymphotoxin beta: −56
  mRNA expression level of metalloproteinase stromelysin-2: 54
  mRNA expression level of ninjurin1: 135
  mRNA expression level of p50-NF-kappa B homolog: 33
[1]; [12]
  number of genes whose expression was enhanced: 6 genes
  number of genes whose expression was inhibited: 25 genes
[2]; Homo sapiens, 48 h
  GI50: 1.9 µM
[2]; [13]
  CC50: > 100 µM
[2]
  TGI: >100 µM
[3]
  TGI: 2.6 µM
[3]; Homo sapiens, DMS-114, 48 h
  GI50: 0.038 µM
[3]; Homo sapiens, DMS-114, 48 h, read-out: LC50 (the source's name)
  CC50: > 100 µM
[4]
  TGI: 10 µM
[4]; Homo sapiens, HCC 2998, 48 h
  GI50: 0.33 µM
[4]; Homo sapiens, HCC 2998, 48 h, read-out: LC50 (the source's name)
  CC50: 40 µM
[5]; Homo sapiens, 48 h
  GI50: 0.18 µM
[5]; [13]
  CC50: 41 µM
[5]
  TGI: 1.2 µM
[6]; Homo sapiens, MCF7, 48 h
  GI50: 0.16 µM
[6]; Homo sapiens, MCF7, 48 h, read-out: LC50 (the source's name)
  CC50: > 100 µM
[6]
  TGI: >100 µM
[7]; Homo sapiens, MKN-74, 48 h
  GI50: 0.026 µM
[7]; Homo sapiens, MKN-74, 48 h, read-out: LC50 (the source's name)
  CC50: > 100 µM
[7]
  TGI: 0.56 µM
[8]; Homo sapiens, 48 h, OVCAR-3, incubation two days
  GI50: 0.35 µM
[8]; Homo sapiens, OVCAR-3, 48 h, read-out: LC50
  CC50: > 100 µM
[8]; OVCAR-3, incubation two days
  TGI: 39 µM
[9]; Homo sapiens, 48 h
  GI50: 26.3 µM
[9]; [13]
  CC50: > 100 µM
[9]
  TGI: >100 µM
[10]; Homo sapiens, 48 h
  GI50: 0.83 µM
  LC50 (concentration reducing cell count to 50% of time-zero count): > 100 µM
[10]
  TGI: >100 µM
[11]
  growth inhibitory effect on cultured human cancer cells: strong growth inhibitory effect
